# Data: patent US9340517B2, “Methods of modulating the activity of the MC5 receptor and treatment of conditions related to this receptor” (Mimetica PTY LTD, priority 2008, dated 2016)
# Molecular target: human MC5R (Homo sapiens (Human), UniProt P33032)
# Test: Human MC5R radioligand binding assay ([125I] NDP-MSH displacement, membranes)
# Details: not given
# Method: Assessments of compound binding to human MC5R (hMC5R)) by displacement of an ^125I-labeled NDP-MSH receptor ligand peptide were performed essentially as described in the data sheets produced by Perkin Elmer to accompany their frozen hMC5R membranes (Perkin Elmer catalog number RBXMC5M400UA).
# Na^125I (0.5 mCi, 17.4 Ci/mg) was added to 50 μL sodium phosphate (50 mM, pH 7.4) in an eppendorf tube precoated with IODOGEN. After incubation for 10 mins the phosphate buffer containing the iodine was added to NDP-MSH (10 ul at 1 mg/mL) in a separate eppendorf tube. This was incubated for a further 10 mins. The iodinated NDP-MSH was purified by HPLC on a Zorbax SB 300 column using solvent A: 0.05% TFA and solvent B: 90% acetonitrile 0.045% TFA with a linear gradient, 0-67% B over 60 mins.
# Perkin Elmer frozen hMC5 membranes: catalog number RBXMC5M400UA, 0.4 mL/vial; 400 microassays/vial, 0.78 mg/mL protein concentration
# Vials of frozen membranes were thawed rapidly immediately before use, diluted with binding buffer and vortexed. Resuspended membranes were kept on ice until they were added to the wells of the plate.
# Assays were performed in 96 well polypropylene plates. […] This was incubated for 1 hr at 37° C.
# Sequence of human MC5R (P33032 whole entry): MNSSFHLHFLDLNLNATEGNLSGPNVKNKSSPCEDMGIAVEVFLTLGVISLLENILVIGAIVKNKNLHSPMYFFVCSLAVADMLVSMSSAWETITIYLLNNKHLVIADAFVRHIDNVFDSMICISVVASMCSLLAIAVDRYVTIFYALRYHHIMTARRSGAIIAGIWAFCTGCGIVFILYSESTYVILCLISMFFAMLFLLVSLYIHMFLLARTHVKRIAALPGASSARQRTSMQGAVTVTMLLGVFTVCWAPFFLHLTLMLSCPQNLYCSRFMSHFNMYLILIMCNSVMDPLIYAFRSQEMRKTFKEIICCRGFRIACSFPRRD
row,IC50,Compound
1,< 1000 nM,"O=C(NCC1CCN(CC(c2ccccc2)c2ccccc2)C(=O)C(CC2CCNCC2)N1)c1ccc2ccccc2c1 (racemic) [Compound 198, N-((1-(2,2-diphenylethyl)-2-oxo-3-(piperidin-4-ylmethyl)-1,4-diazepan-5-yl)methyl)-2-naphthamide]"
2,< 100 nM,"CC[C@H](CN1CC[C@@H](CNC(=O)c2ccc3cc(Cl)ccc3c2)N[C@H](CCN2CCCCC2)C1=O)c1ccccc1 [Compound 582, 6-chloro-N-(((3R,5S)-2-oxo-1-((S)-2-phenylbutyl)-3-(2-(piperidin-1-yl)ethyl)-1,4-diazepan-5-yl)methyl)-2-naphthamide]"
3,< 1000 nM,"CC[C@H](CN1CC[C@@H](CNC(=O)Cc2ccc(Cl)cc2Cl)N[C@@H](CCN2CCCCC2)C1=O)c1ccccc1 [Compound 540, 2-(2,4-dichlorophenyl)-N-(((3S,5S)-2-oxo-1-((S)-2-phenylbutyl)-3-(2-(piperidin-1-yl)ethyl)-1,4-diazepan-5-yl)methyl)acetamide]"
4,< 1000 nM,"O=C(NCC1CCN(CC(c2ccccc2)c2ccccc2)C(=O)C(C2CCNCC2)N1)c1ccc2ccccc2c1 (racemic) [Compound 197, N-((1-(2,2-diphenylethyl)-2-oxo-3-(piperidin-4-yl)-1,4-diazepan-5-yl)methyl)-2-naphthamide]"
5,< 1000 nM,"CC[C@@H](CN1CC[C@@H](CNC(=O)c2ccc3cc(Cl)ccc3c2)N[C@H](CCN2CCCCC2)C1=O)c1ccccc1 [Compound 584, 6-chloro-N-(((3R,5S)-2-oxo-1-((R)-2-phenylbutyl)-3-(2-(piperidin-1-yl)ethyl)-1,4-diazepan-5-yl)methyl)-2-naphthamide]"

# Same assay, conditions: hMC5R binding assay as in Example 102; compounds tested as trifluoroacetate or hydrochloride salts, or as free base
row,IC50,Compound
1,< 1000 nM,"NCC[C@@H]1N[C@H](CNC(=O)/C=C/c2ccccc2)CCN(CC(c2ccccc2)c2ccccc2)C1=O [Compound 282, N-(((3S,5S)-3-(2-aminoethyl)-1-(2,2-diphenylethyl)-2-oxo-1,4-diazepan-5-yl)methyl)cinnamamide]"
2,< 100 nM,"N=C(N)NCCC[C@@H]1N[C@H](CNC(=O)/C=C/c2ccccc2)CCN(CC(c2ccccc2)c2ccccc2)C1=O [Compound 153, N-(((3S,5S)-1-(2,2-diphenylethyl)-3-(3-guanidinopropyl)-2-oxo-1,4-diazepan-5-yl)methyl)cinnamamide]"
3,< 100 nM,"O=C(/C=C/c1ccccc1)NC[C@@H]1CCN(CC(c2ccccc2)c2ccccc2)C(=O)[C@H](CCCN2CCCCC2)N1 [Compound 269, N-(((3S,5S)-1-(2,2-diphenylethyl)-2-oxo-3-(3-(piperidin-1-yl)propyl)-1,4-diazepan-5-yl)methyl)cinnamamide]"
4,< 1000 nM,"NCCC[C@@H]1N[C@H](CNC(=O)/C=C/c2ccccc2)CCN(CC(c2ccccc2)c2ccccc2)C1=O [Compound 213, N-(((3S,5S)-3-(3-aminopropyl)-1-(2,2-diphenylethyl)-2-oxo-1,4-diazepan-5-yl)methyl)cinnamamide]"
5,< 1000 nM,"Nc1ccccc1C[C@H]1C(=O)N(CC(c2ccccc2)c2ccccc2)CC[C@H]2CN(C(=O)/C=C/c3ccc(Cl)cc3)CN21 [Compound 453, (5S,9aS)-5-((2-aminobenzyl)-2-(E)-3-(4-chlorophenyl)acryloyl)-7-(2,2-diphenylethyl)hexahydro-1H-imidazo[1,5-d][1,4]diazepin-6(5H)-one]"

# Same assay, conditions: hMC5R binding assay as in Example 102; compounds tested as trifluoroacetate or hydrochloride salts, or free base
row,Compound,IC50
1,O=C(NC[C@@H]1CCN(Cc2cc(Cl)cc(Cl)c2)C(=O)[C@H](CCN2CCOCC2)N1)c1ccc(Cl)c(Cl)c1 [Compound 556],< 100 nM
2,O=C(NC[C@@H]1CCN(Cc2cc(Cl)cc(Cl)c2)C(=O)[C@H](CCN2CCOCC2)N1)c1ccc2cc(Cl)ccc2c1 [Compound 555],< 100 nM
3,COc1ccc2cc(C(=O)NC[C@@H]3CCN(Cc4cc(Cl)cc(Cl)c4)C(=O)[C@H](CCN4CCCCC4)N3)ccc2c1 [Compound 568],< 100 nM

# System: not given
# Test: not given
# Details: oral, after 8-12 weeks of therapy; cited from earlier work
row,Compound,reduction of sebum excretion
1,"CC1=C(/C=C/C(C)=C/C=C/C(C)=C\C(=O)O)C(C)(C)CCC1 [isotretinoin, 13-cis-retinoic acid]",up to 90%

# Same assay, conditions: oral, by 2 weeks; cited from earlier work
row,Compound,reduction of sebum excretion
1,"CC1=C(/C=C/C(C)=C/C=C/C(C)=C\C(=O)O)C(C)(C)CCC1 [isotretinoin, 13-cis-retinoic acid]",60-70%
